Measurements from patent US9296760B2, “Antibacterial compounds” (JANSSEN SCIENCES IRELAND UC, priority 2012, dated 2016).
Converted amounts (≈) assume the structure as drawn.

Tests used:
[1] = target: T1, S. aureus ATCC 29213 FabI (Staphylococcus aureus, UniProt Q6GI75); experiment: Staphylococcus aureus FabI enzyme inhibition assay; format: biochemical; settings: NADH consumption, 30 minutes, read-out: FabI (300.235) IC50 (converted)
T1 sequence (Q6GI75 1-256): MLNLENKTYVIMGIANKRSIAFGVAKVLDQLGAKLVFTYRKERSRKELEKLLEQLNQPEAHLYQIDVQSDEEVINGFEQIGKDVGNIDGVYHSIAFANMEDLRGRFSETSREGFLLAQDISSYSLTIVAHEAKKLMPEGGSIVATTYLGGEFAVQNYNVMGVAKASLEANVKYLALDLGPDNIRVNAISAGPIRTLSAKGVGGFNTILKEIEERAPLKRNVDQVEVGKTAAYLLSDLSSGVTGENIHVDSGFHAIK
Description: Y.1 FabI Enzyme Inhibition: Staphylococcus aureus FabI Enzyme Inhibition Assay
FabI enzyme inhibition assays were carried out in half-area, 384-well microtitre plates. […] The reaction mixtures were incubated for 30 minutes at room temperature and the reaction was stopped by adding 200 mM Tris buffer (pH 9.0) to create a pH-shift. The consumption of NADH was monitored by measuring the change in absorbance at […]. By comparing sample readings to those of negative (absence of compound) and positive (absence of enzyme) controls, the percent inhibition of enzymatic activity of the compounds was determined A best-fit curve is fitted by a minimum of squares method. From this an IC50-value (expressed in μg/ml), resulting in 50% inhibition of enzymatic activity, was obtained.

[2] = system: Staphylococcus aureus ATCC 29213; experiment: Antibacterial susceptibility testing, IC90 determination (broth microdilution, resazurin); format: cell-based; settings: 90% inhibitory concentration for bacterial growth; for STA (361.159) IC90: S. aureus ATCC 29213; for IC90: Staphylococcus aureus, ATCC29213, S. aureus ATCC 29213, read-out: STA (361.159) IC90
Description: Y.2 In Vitro Method for Testing Compounds for Antibacterial Activity Against Various Bacterial Strains
Preparation of Bacterial Suspensions for Susceptibility Testing
The following bacteria were used: Staphylococcus aureus ATCC 29213, methicillin-resistant Staphylococcus aureus (MRSA) ATCC 700788 and Escherichia coli ATCC 35218. The bacteria used in this study were grown overnight in flasks containing 100 ml Mueller-Hinton broth (Difco cat. nr. 0757-17) in sterile de-ionized water, with shaking, at 37° C. Stocks were store at −70° C. until use.
Bacteria were incubated on a tryptic soy agar plate containing 5% sheep blood (Becton Dickinson cat. nr. 254053) for 18-24 hours at 35° C. in aerobic conditions (first passage). For the second passage, fresh Mueller-Hinton broth is inoculated with 5-10 colonies and grown overnight at 35° C. until turbidity (reaching log-phase) in aerobic conditions is reached. The bacterial suspension is then adjusted to 0.5 McFarland density and further diluted 1:100 in Mueller Hinton broth medium. This is used as inoculum.
The result(s) are depicted the table below (for STA ATCC 29213).
Antibacterial Susceptibility Testing: IC90 Determination
(§1) MIC assays were performed by the broth microdilution method in a 96-well format (flat-bottom microtitre plates) with a final volume of 0.1 ml Mueller Hinton broth containing two-fold serial dilutions of compounds and inoculated with 5×10^5 CFU/ml of bacteria (standard inoculum size according to CLSI guidelines). Inhibitors are typically varied over the range of 63 to 0.49 μM. The final DMSO concentration in the assay was 1.25% (maximum tolerable DMSO concentration=6%). In the assays where the effect of human serum on the activity of the compounds against S. aureus was tested, human serum was added at a final concentration of 10%. The plates were incubated at 35° C. for 16-20 hours. At the end of incubation the bacterial growth was quantified fluorometrically. For this, resazurin was added to all wells and the plates were re-incubated. The incubation time is dependent on the type of bacteria. A change in color from blue to pink indicated the growth of bacteria. The fluorescence was read in computer-controlled fluorometer (Fluoroskan Ascent FL, Labsystems) at an excitation wavelength 540 nm and an emission wavelength of 590 nm. The % growth inhibition achieved by the compounds was calculated according to standard methods. The IC90 (expressed in μg/ml) was defined as the 90% inhibitory concentration for bacterial growth. A panel of reference compounds were simultaneously tested for QC approval.

S. aureus = experiment: Antibacterial susceptibility testing, IC90 determination with 10% human serum; format: cell-based, Staphylococcus aureus; settings: S. aureus with human serum at final concentration of 10%; for IC90: Staphylococcus aureus, read-out: STA + 10% HS (361.169) IC90
Description: as §1, with “Antibacterial Susceptibility Testing: IC90 Determination MIC” for “MIC”, “approval. The results are depicted in the table(s) below (STA+10% HS).” for “approval.”

Human HelaM cells = experiment: Cytotoxicity MTT assay; format: cell-based; settings: 72 hours
Description: (§2) Cytotoxicity of the compounds was evaluated using the MTT assay. Human HelaM cells grown in 96-well plates were exposed to serial dilutions of the tested compounds (final volume of 0.2 ml) and incubated for 72 hours at 37° C. and 5% CO2 Inhibitors are typically varied over the range of 25 to 0.8 μM. The final DMSO concentration in the assay is 0.5%. MTT (3-(4,5-Dimethylthiazol-2-yl)-2,5-diphenyltetrazolium bromide, a tetrazole) was added and reduced to purple formazan only in living cells. Solubilization of the formazan crystals was achieved by adding 100 μl 2-propanol. Cell viability was determined by measuring the absorbance of the reduced formazan, giving a purple color, at 540 nm and 690 nm. The absorbance measured at 690 nm was automatically subtracted from the absorbance at 540 nm, to eliminate the effects of non-specific absorption. The percent cytotoxicity achieved by the compounds was calculated according to standard methods. Cytotoxicity is reported as CC50, the concentration that causes a 50% reduction in cell viability.
(§3) The results are depicted in the table(s) below (HELAM).

Cytotoxicity MTT assay = format: cell-based, Human; settings: human, HelaM cells, read-out: HELAM (222.125) CC50
Description: as §2, §3

IC50 [1] [nM]	STA (361.159) IC90 [2] [µg/mL]	STA + 10% HS (361.169) IC90 (S. aureus) [µg/mL]	IC90 [2] [µg/mL]	IC90 (S. aureus) [µg/mL]	melting point [°C]	SMILES	HELAM (222.125) CC50 (Human HelaM cells) [µg/mL]	CC50 at 72 h (Cytotoxicity MTT assay) [µg/mL]
747	0.46	0.45				O=C1CNCc2cc(/C=C/C(=O)N3CCC=C(c4ccccc4)CC3)cnc2N1 [compound 36]	>19.47	
820			0.5 (≈ 1.24 µM)	0.46	198.79	CN1CC(=O)Nc2ncc(/C=C/C(=O)N3CCC=C(c4ccccc4)CC3)cc2C1 [compound 38]	>10.11	
721	0.53	0.60				CN1CC(=O)Nc2ncc(/C=C/C(=O)N3CCC=C(c4ccccc4)CC3)cc2C1 [compound 40]	24.25	
21400			6.56 (≈ 14.8 µM)	4.75	206	O=C1Nc2ncc(/C=C/C(=O)N3CCC=C(c4ccccc4)CC3)cc2CN2CCNCC12 (stereo not drawn) [compound 52]		> 11.1
